# Data: publication PMC8286840, “Identifying SARS-CoV-2 antiviral compounds by screening for small molecule inhibitors of Nsp3 papain-like protease” (Biochemical Journal, 2021)
# Where a name gives a salt, the structure may show the parent alone. Read-outs that look alike come from different tables or passages of the source.
# What was measured:
# [1] = target: T1, SARS-CoV-2 PLpro (nsp3 1564–1878) (Severe acute respiratory syndrome coronavirus 2, UniProt P0DTD1); assay: biochemical; design: FRET-quenched peptide (Pro3) cleavage by PLpro, 10 min pre-incubation, slope over 20 min, normalised to no-compound control; conditions: low concentration screen, read-out: % of control remaining
# [2] = target: T1, SARS-CoV-2 PLpro (nsp3 1564–1878); assay: biochemical; design: FRET-quenched peptide (Pro3) cleavage by PLpro, 10 min pre-incubation, slope over 20 min, normalised to no-compound control; conditions: high concentration screen, read-out: % of control remaining
compound,measurement,setting,value
COc1cc2ncnc(Nc3ccc(Oc4ccccc4)cc3)c2cc1OC [Src Kinase Inhibitor I],remaining activity at 1.25 µM,[1]; Well no.=2563,99.2%
same,remaining activity at 3.75 µM,[2]; Well no.=2563,99.3%
CCOC(=O)Nc1ccc(NCc2ccc(F)cc2)nc1N [Flupirtine maleate],remaining activity at 1.25 µM,[1]; Well no.=711,95.7%
same,remaining activity at 3.75 µM,[2]; Well no.=711,90.6%
CN1[C@@H]2CC(O)C[C@H]1[C@@H]1O[C@@H]12 (stereo partly drawn) [Scopine (hydrochloride)],remaining activity at 1.25 µM,[1]; Well no.=6555,94.2%
same,remaining activity at 3.75 µM,[2]; Well no.=6555,101%
O=C(O)[C@H](Cc1ccc(Nc2nccc3ccncc23)cc1)NC1=C(Br)C(=O)C12CCCCC2 [Zaurategrast],remaining activity at 1.25 µM,[1]; Well no.=7838,98.1%
same,remaining activity at 3.75 µM,[2]; Well no.=7838,99.7%
COc1ccc(OC)c([C@@H](O)[C@H](C)N)c1 [Methoxamine hydrochloride],remaining activity at 1.25 µM,[1]; Well no.=980,100%
same,remaining activity at 3.75 µM,[2]; Well no.=980,101%
NNCc1cccc(O)c1 [3-Hydroxybenzylhydrazine dihydrochloride],remaining activity at 1.25 µM,[1]; Well no.=568,104%
same,remaining activity at 3.75 µM,[2]; Well no.=568,97.9%
Cc1ccc(C)c(OCCCC(C)(C)C(=O)O)c1 [Gemfibrozil],remaining activity at 1.25 µM,[1]; Well no.=2174,95.4%
same,remaining activity at 3.75 µM,[2]; Well no.=2174,98.7%
CC(F)(F)CN1CCOc2c(nn(-c3ccccc3Cl)c2-c2ccc(Cl)cc2)C1=O [PF-514273],remaining activity at 1.25 µM,[1]; Well no.=5700,97.7%
same,remaining activity at 3.75 µM,[2]; Well no.=5700,96.2%
CC(C)NCC(O)c1ccc(NS(C)(=O)=O)cc1 (racemic),remaining activity at 1.25 µM,[1]; Well no.=1212,105%
same,remaining activity at 3.75 µM,[2]; Well no.=1212,103%
CN(C)CCCO[C@@H]1[C@H]2OC(C)(C)O[C@H]2O[C@@H]1[C@H](O)CO [Amiprilose hydrochloride],remaining activity at 1.25 µM,[1]; Well no.=207,101%
same,remaining activity at 3.75 µM,[2]; Well no.=207,103%
C[C@@H](O)[C@@H]1NC(=O)[C@H](CCCCN)NC(=O)[C@@H](Cc2c[nH]c3ccccc23)NC(=O)[C@H](Cc2ccccc2)NC(=O)[C@@H](NC(=O)[C@H](N)Cc2ccccc2)CSSC[C@@H](C(=O)N[C@H](CO)[C@@H](C)O)NC1=O [Octreotide],remaining activity at 1.25 µM,[1]; Well no.=1977,103%
same,remaining activity at 3.75 µM,[2]; Well no.=1977,107%
Cc1nc(-c2ccccc2)c(-c2ccncc2)o1 [SC-68376],remaining activity at 1.25 µM,[1]; Well no.=2650,96.3%
same,remaining activity at 3.75 µM,[2]; Well no.=2650,102%
C[C@H]1O[C@H](O[C@H]2[C@H](O)[C@@H](O)[C@@H](O[C@H]3[C@H](O)[C@@H](O)C(O)O[C@@H]3CO)O[C@@H]2CO)[C@H](O)[C@@H](O)[C@@H]1N[C@H]1C=C(CO)[C@@H](O)[C@H](O)[C@H]1O (stereo partly drawn) [Acarbose],remaining activity at 1.25 µM,[1]; Well no.=5149,101%
same,remaining activity at 3.75 µM,[2]; Well no.=5149,104%
CC(=O)[C@H]1CC[C@H]2[C@@H]3CC[C@H]4C[C@H](O)CC[C@]4(C)[C@H]3CC[C@]12C [Allopregnanolone],remaining activity at 1.25 µM,[1]; Well no.=6197,105%
same,remaining activity at 3.75 µM,[2]; Well no.=6197,107%
COc1cc(NS(C)(=O)=O)ccc1Nc1c2ccccc2nc2ccccc12 [Amsacrine hydrochloride],remaining activity at 1.25 µM,[1]; Well no.=346,97.8%
same,remaining activity at 3.75 µM,[2]; Well no.=346,103%
CC(=O)N[C@@H]1C[C@H](NC(C)(C)C)CC[C@@H]1N1CC[C@H](Nc2ncnc3cc(C(C)(C)C)nn23)C1=O [BMS-813160],remaining activity at 1.25 µM,[1]; Well no.=8217,103%
same,remaining activity at 3.75 µM,[2]; Well no.=8217,100%
CO[C@H]1CC[C@@H](O[C@H]2C[C@H]([C@]3(C)CC[C@]4(C[C@H](O)[C@@H](C)[C@@H]([C@@H](C)/C=C(\C)C(=O)[C@H](C)C[C@H](C)C(=O)O)O4)O3)O[C@]3(O[C@@H]([C@H]4O[C@@](O)(CO)[C@H](C)C[C@@H]4C)C[C@@H]3C)[C@@H]2C)O[C@@H]1C [Nanchangmycin],remaining activity at 1.25 µM,[1]; Well no.=4861,101%
same,remaining activity at 3.75 µM,[2]; Well no.=4861,104%
COc1ccc2cccc(CCNC(C)=O)c2c1 [Agomelatine],remaining activity at 1.25 µM,[1]; Well no.=5143,100%
same,remaining activity at 1.25 µM,[1]; Well no.=7340,99.9%
same,remaining activity at 3.75 µM,[2]; Well no.=5143,100%
same,remaining activity at 3.75 µM,[2]; Well no.=7340,102%
CN(C)c1ccc(/C=C2\C(=O)Nc3ccccc32)cc1 [SU 4312],remaining activity at 1.25 µM,[1]; Well no.=1179,97.9%
same,remaining activity at 3.75 µM,[2]; Well no.=1179,101%
Oc1c(Cl)cc(Cl)c2cccnc12 [Chloroxine],remaining activity at 1.25 µM,[1]; Well no.=5266,91.9%
same,remaining activity at 3.75 µM,[2]; Well no.=5266,97.2%
CCOCCn1c(C2CCN(CCc3ccc(C(C)(C)C(=O)O)cc3)CC2)nc2ccccc21 [Bilastine],remaining activity at 1.25 µM,[1]; Well no.=6188,101%
same,remaining activity at 3.75 µM,[2]; Well no.=6188,100%
COCCCN1CCC(NC(=O)c2cc(Cl)c(N)c3c2OCC3)CC1 [Prucalopride (succinate)],remaining activity at 1.25 µM,[1]; Well no.=7675,100%
same,remaining activity at 3.75 µM,[2]; Well no.=7675,103%
C[C@@H](O)CC(=O)O [(R)-3-Hydroxybutanoic acid],remaining activity at 1.25 µM,[1]; Well no.=7123,106%
same,remaining activity at 3.75 µM,[2]; Well no.=7123,105%
CC(=O)Nc1ccn([C@@H]2O[C@H](COP(=O)(O)OP(=O)(O)OP(=O)(O)O)[C@@H](O)[C@H]2O)c(=O)n1 [N4-Acetylcytidine triphosphate (sodium)],remaining activity at 1.25 µM,[1]; Well no.=7305,109%
same,remaining activity at 1.25 µM,[1]; Well no.=7964,95.2%
same,remaining activity at 3.75 µM,[2]; Well no.=7305,109%
same,remaining activity at 3.75 µM,[2]; Well no.=7964,92.1%
Cc1ccc(N(CC2=NCCN2)c2cccc(O)c2)cc1 [Phentolamine mesylate],remaining activity at 1.25 µM,[1]; Well no.=1253,104%
same,remaining activity at 3.75 µM,[2]; Well no.=1253,106%
CCCCC/C=C\C\C=C/C=C/C=C/[C@@H](SC[C@H](N)C(=O)NCC(=O)O)[C@@H](O)CCCC(=O)O [Leukotriene D4],remaining activity at 1.25 µM,[1]; Well no.=4431,100%
same,remaining activity at 3.75 µM,[2]; Well no.=4431,98.6%
CCN(CC)CCCCNc1ncc2cc(-c3c(Cl)cccc3Cl)c(NC(=O)NC(C)(C)C)nc2n1 [PD-161570],remaining activity at 1.25 µM,[1]; Well no.=5413,99.1%
same,remaining activity at 3.75 µM,[2]; Well no.=5413,97.7%
COc1ccc(CN2C(=O)C(=O)c3cc(OC(F)(F)F)ccc32)cc1 [VU 0238429],remaining activity at 1.25 µM,[1]; Well no.=8702,97.3%
same,remaining activity at 3.75 µM,[2]; Well no.=8702,93.7%
CC(C)[C@H](N)C(=O)OCCOCn1cnc2c(=O)nc(N)[nH]c21 [Valaciclovir],remaining activity at 1.25 µM,[1]; Well no.=2012,98.7%
same,remaining activity at 3.75 µM,[2]; Well no.=2012,97.7%
Cn1cnc2c(ncn2[C@@H]2O[C@H](CO)[C@@H](O)[C@H]2O)c1=O [1-Methylinosine],remaining activity at 1.25 µM,[1]; Well no.=7167,103%
same,remaining activity at 1.25 µM,[1]; Well no.=7858,102%
same,remaining activity at 3.75 µM,[2]; Well no.=7167,101%
CC(C)C[C@H](NC(=O)[C@@H](COC(C)(C)C)NC(=O)[C@H](Cc1ccc(O)cc1)NC(=O)[C@H](CO)NC(=O)[C@H](Cc1c[nH]c2ccccc12)NC(=O)[C@H](Cc1cnc[nH]1)NC(=O)[C@@H]1CCC(=O)N1)C(=O)N[C@@H](CCCNC(=N)N)C(=O)N1CCC[C@H]1C(=O)NNC(N)=O [Goserelin],remaining activity at 1.25 µM,[1]; Well no.=1624,98.9%
same,remaining activity at 3.75 µM,[2]; Well no.=1624,101%
C[N+](C)(C)CCC(=O)c1cccc2ccccc12 [2-(alpha-Naphthoyl)ethyltrimethylammonium iodide],remaining activity at 1.25 µM,[1]; Well no.=1051,96.5%
same,remaining activity at 3.75 µM,[2]; Well no.=1051,103%
